The record followed here is patent US20240261410A1, “SODIUM DE[…] ACID AS […]” (priority 2023, published 2024).

Some results are limits rather than exact numbers.

For data set [1] the following is noted: DOSY-NMR, 10 mM in D2O, 600 MHz, not a partition coefficient. As to the method:
1H and 2D NMR (COSY, HSQC, and HMBC) spectra were recorded on a Bruker Avance III 500 MHz spectrometer operating at 125 MHz. The spectra were obtained in methanol-d4 or DMSO-d6 using residual solvent signals as internal standards. Diffusion orientated (DOSY) NMR spectra were obtained on a JEOL 600 mHz instrument using DOSY pulse sequences provide by the manufacturer.
The diffusion constants (log D) of residual deuterated water (HDO) and methanol (MeOD) are also indicated on the graphs. The corresponding ^1H-NMR spectra are shown above the graphs. All spectra were acquired at 600 MHz.

Data set [2] concerns Escherichia coli ATCC 9637. Description: MIC, two-fold broth dilution in TYG, 96-well microtiter plates. It counts as cell-based. The settings on record: TunR2 in DMSO, TunR2-DOC and DOC in water, table prints no unit (dilution series in μg/mL). The procedure:
(§1) Seed cultures of Bacillus subtilis ATCC 6633, Escherichia coli ATCC 9637, Mycobacterium smegmatis mc^2 155, and Saccharomyces cerevisiae NRRL Y-139 were started from freezer stocks and grown in tryptone-yeast extract-glucose (TYG) broth for 24 hours at 27° C. Microbial dilutions were prepared as follows. Sterile PBS (phosphate buffer saline, 1 mL) was added to a glass tube using a disposable 10 mL pipet. Using a sterile loop microbial material was transferred from an agar plate, and the turbidity was measured and adjusted to 1.0 Macfarlane units. The inoculum dilution was then prepared. To a sterile 50 mL blue-capped centrifuge tube, 50 mL TYG stock media were added using a 25 mL disposable pipet. To this tube was then added 1 mL of the microbial dilution, and the contents were mixed by vortexing (this will give a 1:50 v/v dilution). This 1:50 v/v dilution inoculum was dispensed using a multichannel pipet, adding 100 μL to each well of a 96-well round-bottom microtiter plate.
(§2) MICs and MBICs were evaluated using two-fold broth dilution series in 96-well round-bottom microtiter plates. Diluted solutions were prepared by adding 20 μl of the 1 mg/mL stock of the TunR2 to 1.980 mL of TYG in a 15 mL blue-capped centrifuge tube for a total of 2 mL volume at 10 μg/mL. […] A blank of 20 μl dimethyl sulfoxide (DMSO) up to 2 mL TYG was also included. The microtiter plates were then set up as follows. To wells 1, 2, and 3 of the first row (A row) of the microtiter plate 200 μl of TYG media control were added. To wells 4, 5, and 6 in row A of the plate 200 μl TYG+TunR2 (10 μg/mL) were added. To wells 7, 8, and 9 in row A of the plate, 200 μl TYG+DOC (5 μg/mL) were added. And to wells 10, 11, and 12 in row A of the plate, 200 μl TYG+TunR2 (10 μg/mL)+DOC (5 μg/mL) were added. To the remaining wells of the microtiter plate 100 μl of the sterile TYG liquid media were added.
(§3) Two-fold dilutions were then prepared as follows. […] The box was placed into the 37° C. incubator and microbial growth and biofilm formation were assessed visually on a daily basis for six days.
In general terms: Broth dilution looks for growth in wells or tubes with falling amounts of substance.

Data set [3] relates to Saccharomyces cerevisiae NRRL Y-139. The description is as above. The class given is cell-based. The settings on record: TunR2 in DMSO, TunR2-DOC and DOC in water, table prints no unit (dilution series in μg/mL). The procedure:
as §1, §2, §3

For data set [4], the system named is Bacillus subtilis ATCC 6633. The data set is described as above. The settings on record: TunR2 in DMSO, TunR2-DOC and DOC in water, table prints no unit (dilution series in μg/mL). The class given is cell-based. The procedure:
as §1, §2, §3

Data set [5] relates to Mycobacterium smegmatis mc^2 155. Description: MIC and MBIC (growth and biofilm formation), two-fold broth dilution in TYG. It counts as cell-based.
Description: MICs and MBICs were evaluated using two-fold broth dilution series in 96-well round-bottom microtiter plates. […]
Two-fold dilutions were then prepared as follows. […] The box was placed into the 37° C. incubator and microbial growth and biofilm formation were assessed visually on a daily basis for six days. […]
A short description of data set [6]: Stability of the aqueous DOC solutions on standing at room temperature. The class given is physicochemical. The conditions noted are these: 18 hours at room temperature. The procedure: (§4) The modified tunicamycin TunR2 solid powder (8 mg, […]) and DOC solid powder (4.4 mg, […]) were vortexed together in an equimolar ratio, and was prepared in water for injection (3 mL) and stirred until dissolved. If needed, the pH was adjusted to 5.8 by addition of 10% acetic acid. The TunR2 was initially insoluble under these conditions, but began to dissolve after 5 minutes at 50° C. (in the range of about 50° C. to about 70° C.) and was completely soluble after 10 minutes at this temperature (FIG. 6A to FIG. 6C). […] The native tunicamycin solution became somewhat hazy after this time, but was readily clarified on gentle re-warming.
(§5) The present work undertaken to develop a water-soluble TunR2 formulation solubilized by sodium deoxycholate to reduce the solvent toxicity and to improve the physiochemical properties. Solutions were prepared either by mixing together TunR2 and DOC powders in equimolar portions and adding water, or by preparing a DOC aqueous stock solution and adding this directly to the TunR2. At 10 mg/mL, the TunR2 was initially insoluble under these conditions, but began to dissolve after 5 minutes at 50° C. and was completely soluble after 10 minutes at this temperature. […] The native tunicamycin solution became somewhat hazy after this time, but was readily clarify on gentle re-warming.

A short description of data set [7]: Solubilization in water with sodium deoxycholate. It counts as physicochemical. The conditions noted are these: at 50° C., same conditions for tunicamycin and TunR1. As to the method:
as §4, §5

With “5β-cholan-24-oic acid-3α, 12α-diol sodium salt [DOC]”, the “diffusion constant (log D)” value in data set [1] is given as −9.66. Further, the “Minimal Inhibitory Concentration” value in data set [2] is more than 2.5; in data set [3], more than 2.5; in data set [4], more than 2.5; in data set [5] (first figure of cell MIC/MBIC, TunR2 in DMSO, TunR2-DOC and DOC in water, unit not given), more than 2.5. The “effect of DOC control in the MIC assays” value in data set [5] (DOC at the same concentration as the TunR2) is given as “no effect”.
Consider tunicamycin, for which the “state of aqueous DOC solution after cooling and standing” value in data set [6] was “somewhat hazy”. The “time to complete dissolution in water with DOC” value in data set [7] (8 mg TunR2 + 4.4 mg DOC in 3 mL water for injection) was not above 5 min; in data set [7] (at 10 mg/mL, equimolar DOC), not above 5 min.
